Data reported in patent US7510851B2, “Compositions and methods for diagnosing and treating diabetes, insulin resistance and dyslipidemia” (Metabolex, Inc., priority 2001, dated 2009).

What was measured:
[1] = test system: aP2 reporter gene (endogenous PPAR); assay: cell-based natural PPAR-responsive promoter (aP2) reporter gene assay; parameters: species or system mouse
Method: Prostaglandin D2 and 9α,11β-PGF2α were assayed in cell-based assays (ex vivo) designed to detect activation of a natural PPAR responsive promoter. The assay uses the promoter region of the mouse aP2 gene, which contains binding sites for PPARs (both PPAR alpha and gamma) coupled to a reporter gene. Binding of a ligand to endogenous PPAR results in activation of the aP2 reporter gene.

[2] = test system: mouse 3T3-L1 adipocytes; assay: glucose transport in 3T3-L1 adipocytes; format: cell-based; conditions: treatment for 40 hours
[3] = test system: PDHK4; assay: Taqman PCR expression in treated 3T3-L1 adipocytes; format: cell-based, mouse; conditions: for PDHK4 fold change: Taqman, 3T3-L1 adipocytes treated with rosiglitazone, PGD2 or 9α,11β-PGF2α; for up regulation of PDHK4, fold: Taqman PCR with SYBR green detection, verification of chip data
Excerpt: (§1) Primers were designed against murine RGS2 and murine PDHK4 and the gene expression changes observed with the standard mouse chips were verified using Taqman PCR with SYBR green detection. Treatment of cells with pioglitazone, rosiglitazone or troglitazone caused a down regulation of RGS2 by 0.47 fold, 0.41 fold and 0.55 fold, respectively.
(§2) Taqman primers were used to analyze the expression of RGS2 and PDHK4 in mouse 3T3-L1 adipocytes treated with rosiglitazone, PGD2 and 9α,11β-PGF2α. […] In contrast, the fold change with 9α,11β-PGF2α was 0.75. […] In contrast, the fold change with 9α,11β-PGF2α was 0.77.

[4] = test system: RGS2; assay: Taqman PCR expression in treated 3T3-L1 adipocytes; format: cell-based, mouse; conditions: for RGS2 fold change: Taqman, 3T3-L1 adipocytes treated with rosiglitazone, PGD2 or 9α,11β-PGF2α; for down regulation of RGS2, fold: Taqman PCR with SYBR green detection, verification of chip data
Excerpt: as §1, §2

[5] = target: T1, PPAR alpha (Homo sapiens, UniProt Q07869); assay: cell-based PPAR ligand activity reporter assay (PPAR ligand-binding domain coupled to heterologous DNA binding domain); conditions: reporter gene expression
T1 construct: expressed in transfected cells
T1 sequence (Q07869 239-466 limits assumed): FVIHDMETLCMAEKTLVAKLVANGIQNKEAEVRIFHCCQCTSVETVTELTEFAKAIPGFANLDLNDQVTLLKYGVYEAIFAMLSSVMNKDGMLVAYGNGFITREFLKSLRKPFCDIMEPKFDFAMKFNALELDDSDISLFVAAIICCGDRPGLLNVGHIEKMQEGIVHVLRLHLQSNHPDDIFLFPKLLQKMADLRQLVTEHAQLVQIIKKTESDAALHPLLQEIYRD
Method: (§3) Prostaglandin D2 and 9α,11β-PGF2α were assayed in cell-based assays (ex vivo) designed to detect PPAR ligand activity. The assay uses a recombinant protein consisting of a PPAR ligand-binding domain coupled to a heterologous DNA binding domain. See, e.g., Reginato, et. al., J. Biol. Chem. 273:32679 (1998). Binding of a ligand to the PPAR binding domain drives expression of a reporter gene.

[6] = target: T2, PPAR gamma (Homo sapiens, UniProt P37231); assay: as above; conditions: reporter gene expression
T2 construct: expressed in transfected cells
T2 sequence (P37231 238-503 limits assumed): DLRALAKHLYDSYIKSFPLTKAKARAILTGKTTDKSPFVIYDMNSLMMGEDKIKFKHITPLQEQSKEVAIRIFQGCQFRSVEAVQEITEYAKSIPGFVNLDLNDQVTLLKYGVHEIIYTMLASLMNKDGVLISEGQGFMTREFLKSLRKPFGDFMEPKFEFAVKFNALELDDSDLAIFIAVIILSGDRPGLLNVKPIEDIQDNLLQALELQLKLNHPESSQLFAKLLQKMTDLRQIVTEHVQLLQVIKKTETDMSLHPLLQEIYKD
Method: as §3

[7] = test system: 3T3-L1 adipocytes; assay: insulin-stimulated glucose transport (3H-2-deoxyglucose) in adenovirus-infected 3T3-L1 adipocytes; format: cell-based, mouse; conditions: cells infected with control virus, 4 μM PGD2 for 20 hours
Method: 3T3-L1 adipocytes were infected with either control adenovirus or recombinant adenovirus encoding the four human AKR1C isoforms and incubated 20 hours to allow for protein expression. Cells were then treated 20 hours with 4 μM PGD2 and glucose transport in the absence and presence of insulin was measured.

[8] = test system: RGS2 mRNA; assay: standard mouse micro-array expression in treated 3T3-L1 adipocytes; format: cell-based
Excerpt: (§4) For RGS2 we observed down-regulation as follows; pioglitazone 0.29 fold p<0.00009, rosiglitazone 0.25 fold p<0.00003, troglitazone, 0.27 fold p<0.00085. […] As such these regulations are reflective of endogenous PPAR activation of endogenous genes.

[9] = test system: pyruvate dehydrogenase kinase 4 mRNA (PDHK4); assay: as above; format: cell-based
Excerpt: as §4

SMILES	activation of the aP2 reporter gene [1]	effect on glucose transport [2]	PDHK4 fold change [3]	RGS2 fold change [4]	activation of PPAR alpha [5]	activation of PPAR gamma [6]	effect on insulin-stimulated glucose transport [7]	up regulation of PDHK4, fold [3]	down regulation of RGS2, fold [4]	RGS2 mRNA down-regulation, fold [8]	PDHK4 mRNA up regulation, fold [9]
CCCCC[C@H](O)/C=C/[C@@H]1[C@@H](C/C=C\CCCC(=O)O)[C@@H](O)C[C@@H]1O [9α,11β-PGF2α, 9α,11β-prostaglandin F2α]	without effect	no effect on glucose transport	0.77 fold change	0.75 fold change	without effect	without effect	–	–	–	–	–
CCCCC[C@H](O)/C=C/[C@H]1C(=O)C[C@H](O)[C@@H]1C/C=C\CCCC(=O)O [PGD2, prostaglandin D2]	Significant activation	enhances glucose transport to similar levels as those observed with the PPAR ligand rosiglitazone	2.39 fold change	0.29 fold change	Significant activation	Significant activation	enhances insulin-stimulated glucose transport	–	–	–	–
CCc1ccc(CCOc2ccc(CC3SC(=O)NC3=O)cc2)nc1 (stereo not drawn) [pioglitazone]	–	–	–	–	–	–	–	4.9 fold	0.47 fold	0.29 fold	3.13 fold
CN(CCOc1ccc(CC2SC(=O)NC2=O)cc1)c1ccccn1 (stereo not drawn) [rosiglitazone]	–	–	3.73 fold change	0.20 fold change	–	–	–	5.45 fold	0.41 fold	0.25 fold	3.16 fold
Cc1c(C)c2c(c(C)c1O)CCC(C)(COc1ccc(CC3SC(=O)NC3=O)cc1)O2 (stereo not drawn) [troglitazone]	–	–	–	–	–	–	–	5.5 fold	0.55 fold	0.27 fold	3.2 fold
